Experimental data: article PMC4886532, “A highly soluble, non-phototoxic, non-fluorescent blebbistatin derivative” (Scientific Reports, 2016)
Converted amounts (≈) assume the structure as drawn. Like-named read-outs stand apart in the source and are kept apart here.

Key:
[1] = system: zebrafish embryo; design: method as in PMID 24954740; details: after 24 hours of incubation; cited from earlier work
[2] = system: HeLa Kyoto H2B-mCherry eGFP-α-tubulin cells; test: Cell growth assay (cell number, cytokinesis)
Experimental: Cells incubated in different concentrations of the inhibitors were counted on each day for three days.

[3] = system: cldnb:gfp zebrafish embryos; test: Posterior lateral line primordium (pLLp) migration; format: in vivo, zebrafish (Danio rerio); details: 20 μM, 24 hours of incubation
Experimental: However, the highly fluorescent, dense precipitates of blebbistatin disturb imaging in the GFP channel of the microscope. […] In this experiment, cldnb:gfp zebrafish embryos were imaged by an epifluorescent microscope after 24 hours of incubation in the presence of 20 μM concentrations of the indicated inhibitors (Fig. 4d) in order to detect the effect of myosin II inhibition on the proliferating leading edge of the posterior lateral line primordium (pLLp)[21] and visualize the effect of the precipitates by epifluorescent microcopy. […] In the case of para-aminoblebbistatin treatment, the GFP signal of the migrating pLLp can be visualized clearly, while the precipitates of the two other inhibitors highly disturbed the imaging.

[4] = system: HeLa cells; test: Wound healing assay (cell motility); format: cell-based, human; details: 20 μM, 24 hours, uncoated glass; 100% = total diameter of the wound; control 30.6 ± 5.4%
Experimental: For wound healing assays, 200 μl of HeLa cells were plated on 35 mm borosilicate glass imaging dishes at 300,000 cells/ml concentrations and incubated for 24 hours. 1 hour prior to wounding, cells were incubated in 20 μM of the different myosin II inhibitors. After one hour, scratches were made with pipette tips in monolayer cultures and the motility of cells for occupying the wound was monitored for 24 hours with a Foculus Digital Camera (IEEE1394). Analysis of cell motility was carried out by ImageJ, by measuring the distance between two lines fitted on the two sides of the approaching cell edges created by the pipette tips.

[5] = Solubility assays in assay buffer (supernatant concentration after centrifugation); details: room temperature
Experimental: 50 μM of the inhibitors were dissolved in assay buffer (see Experimental Procedures) containing 0.1 or 1 vol/vol% DMSO, centrifuged at the indicated times and the concentration of the supernatants were determined at each time point (Fig. 2a,b).
The DMSO content was 1%. […] The experiments were repeated three times.

[6] = target: T1, rabbit skeletal muscle myosin S1 (SkS1) (Oryctolagus cuniculus, UniProt Q28641); test: Steady state actin activated ATPase, SkS1; format: biochemical; details: 45 μM actin, 25 °C
T1 construct: SkS1 (rabbit skeletal S1 fragment); from tissue; host or cells: rabbit skeletal muscle
Experimental: […]. Myosin and actin together with the indicated concentration of the inhibitor were pre-incubated for 5 minutes at room temperature and the measurements were initiated with 1 mM ATP. Data were corrected for background ATPase activity of actin. G-actin was prepared accordingly from rabbit skeletal muscle[24] and polymerized by 2 mM MgCl2 for 1 hour at room temperature. Measurements were performed in low salt buffer containing 5 mM HEPES, 2 mM MgCl2, 0.1 mM EGTA and 2 mM DTT at pH 7.2 or assay buffer containing 20 mM HEPES, 40 mM NaCl, 4 mM MgCl2 at pH 7.3 for basal ATPase activity measurements with DdMD.

[7] = target: T1, rabbit skeletal muscle myosin S1 (SkS1); test: Steady state basal ATPase, SkS1; format: biochemical; details: 25 °C
[8] = target: T2, Dictyostelium discoideum myosin II motor domain (DdMD) (Dictyostelium discoideum, UniProt P08799); test: biochemical; details: for IC50: 20 °C
T2 construct: Dictyostelium discoideum myosin II motor domain (DdMD)
T2 sequence (P08799 86-759 limits assumed): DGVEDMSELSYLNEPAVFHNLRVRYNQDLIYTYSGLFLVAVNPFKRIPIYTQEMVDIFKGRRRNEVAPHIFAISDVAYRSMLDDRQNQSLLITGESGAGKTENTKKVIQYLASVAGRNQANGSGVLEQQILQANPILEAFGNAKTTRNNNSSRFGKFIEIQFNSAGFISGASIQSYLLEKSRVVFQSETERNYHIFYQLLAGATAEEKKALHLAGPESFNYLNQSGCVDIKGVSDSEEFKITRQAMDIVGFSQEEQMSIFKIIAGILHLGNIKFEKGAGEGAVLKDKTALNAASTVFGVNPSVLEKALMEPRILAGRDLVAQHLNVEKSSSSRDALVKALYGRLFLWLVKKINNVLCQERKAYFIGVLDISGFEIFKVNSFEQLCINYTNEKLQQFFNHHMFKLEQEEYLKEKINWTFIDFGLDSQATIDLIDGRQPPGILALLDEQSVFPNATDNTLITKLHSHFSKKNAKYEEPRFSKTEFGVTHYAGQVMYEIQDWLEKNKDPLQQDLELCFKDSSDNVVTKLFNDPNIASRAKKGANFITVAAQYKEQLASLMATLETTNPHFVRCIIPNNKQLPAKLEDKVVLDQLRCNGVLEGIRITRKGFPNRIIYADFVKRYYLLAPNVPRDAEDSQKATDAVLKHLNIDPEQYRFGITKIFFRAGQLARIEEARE
Experimental: Myosin and actin together with the indicated concentration of the inhibitor were pre-incubated for 5 minutes at room temperature and the measurements were initiated with 1 mM ATP. Data were corrected for background ATPase activity of actin. G-actin was prepared accordingly from rabbit skeletal muscle[24] and polymerized by 2 mM MgCl2 for 1 hour at room temperature. Measurements were performed in low salt buffer containing 5 mM HEPES, 2 mM MgCl2, 0.1 mM EGTA and 2 mM DTT at pH 7.2 or assay buffer containing 20 mM HEPES, 40 mM NaCl, 4 mM MgCl2 at pH 7.3 for basal ATPase activity measurements with DdMD.

[9] = system: M2 cells; test: Inhibition of blebbing (blebbing index) of M2 cells; format: cell-based, human
Experimental: Next, we compared the non-muscle myosin II inhibition by para-aminoblebbistatin, para-nitroblebbistatin and blebbistatin in human melanoma (M2) and HeLa cells. As blebbistatin acquired its name from its ability to block blebbing of M2 cells, we compared blebbing indices[17] of M2 cells in time, incubated in the three different myosin II inhibitors at different concentrations (Fig. 3c–e). Even 5 μM concentrations of the myosin II inhibitors achieved significant decrease in the blebbing indices of the cells within an hour, whereas higher concentrations of the inhibitors completely stopped blebbing of the cells within >40–60 minutes (10 μM) or >20 minutes (25 and 50 μM).
For blebbing index determination, M2 cells were incubated for 30 minutes in PBS in every case prior to the addition of inhibitors, in order to initiate extensive blebbing. Blebbing of the cells was monitored before as well as after inhibitor addition to the cells. DMSO concentration was 0.1 vol/vol% in all experiments. Blebbing index was calculated by summing the initiated blebs in a 5-minute interval (starting at the indicated time points) on a given standard area[17] (whole cells with similar size, diameter = 12 ± 1 μm) and normalizing it to the blebbing index prior to inhibitor treatment.

[10] = system: zebrafish skeletal muscle; test: Fast escape response (C-start), maximal angular velocity; format: in vivo, zebrafish (Danio rerio); details: 2 μM
Experimental: (§1) Since the myosin II inhibitors decrease the ATPase activity of SkS1 in vitro, we tested their inhibition on zebrafish skeletal muscle in vivo. We investigated the fast escape response (C-start) reflex of 6 dpf fish evoked by standardized tapping stimuli (Video 1). […] The velocity of the rotating heads of the embryos were quantified (maximal angular velocity) in the absence and in the presence of increasing concentrations of the myosin II inhibitors (2, 5, 10, 20 μM), monitored for 4 hours. The half maximal effective concentration (EC50) values for the inhibition of the maximal angular velocity by the myosin II inhibitors are below 2 μM since even at 2 μM the inhibitory effects were >90% for all inhibitors. We experienced that the inhibitory effect of para-aminoblebbistatin is exerted much slower than that of blebbistatin and para-nitroblebbistatin, probably due to its slower uptake (half inhibitions at […], respectively) (Supplementary Figure 1). To further evaluate the specificity of blebbistatin and its derivatives on different myosin II isoforms, we examined the effect of the inhibitors on 6 dpf (days post fertilization) zebrafish heart muscle in vivo. We monitored heart beating and the amplitude of heart muscle contraction before and after the addition of 20 μM of the inhibitors to the specimens.
(§2) The tapping force was standardized. […] For the cytotoxicity assay, zebrafish embryos were incubated in E3 medium containing 0 μM (Control), 5 μM, 10 μM or 20 μM of para-aminoblebbistatin, para-nitroblebbistatin or blebbistatin in 0.1 vol/vol% final concentration of DMSO and monitored for 70 hours.

[11] = system: zebrafish heart muscle; test: Heart beating and amplitude of heart muscle contraction; format: in vivo, zebrafish (Danio rerio); details: 20 μM, 6 dpf
Experimental: as §1, §2

[12] = system: myosin II; details: no reference given; cited from earlier work

T1 sequence (Q28641 1-844 limits assumed): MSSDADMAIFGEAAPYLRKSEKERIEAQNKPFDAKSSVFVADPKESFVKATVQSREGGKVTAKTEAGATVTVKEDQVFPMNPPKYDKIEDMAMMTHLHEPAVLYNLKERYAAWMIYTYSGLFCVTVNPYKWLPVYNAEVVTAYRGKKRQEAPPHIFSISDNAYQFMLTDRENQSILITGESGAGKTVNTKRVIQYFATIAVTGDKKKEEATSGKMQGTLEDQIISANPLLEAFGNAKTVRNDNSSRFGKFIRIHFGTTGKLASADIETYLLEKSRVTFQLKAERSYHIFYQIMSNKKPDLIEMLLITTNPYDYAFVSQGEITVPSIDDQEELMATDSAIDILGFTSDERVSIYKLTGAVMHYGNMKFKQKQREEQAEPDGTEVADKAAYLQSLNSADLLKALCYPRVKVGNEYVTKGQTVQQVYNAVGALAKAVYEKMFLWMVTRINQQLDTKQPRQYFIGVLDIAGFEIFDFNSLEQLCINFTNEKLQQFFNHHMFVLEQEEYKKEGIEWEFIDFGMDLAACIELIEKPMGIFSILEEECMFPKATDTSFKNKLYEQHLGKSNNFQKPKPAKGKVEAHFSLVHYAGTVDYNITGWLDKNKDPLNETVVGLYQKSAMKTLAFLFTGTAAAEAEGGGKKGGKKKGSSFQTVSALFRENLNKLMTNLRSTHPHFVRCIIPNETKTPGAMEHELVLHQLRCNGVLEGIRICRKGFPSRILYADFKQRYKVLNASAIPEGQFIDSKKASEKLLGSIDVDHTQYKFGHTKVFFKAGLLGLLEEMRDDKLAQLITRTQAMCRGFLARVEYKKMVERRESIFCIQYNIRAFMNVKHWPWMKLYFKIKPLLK
T1 sequence (P02602 whole entry partner, the tested form may be a part): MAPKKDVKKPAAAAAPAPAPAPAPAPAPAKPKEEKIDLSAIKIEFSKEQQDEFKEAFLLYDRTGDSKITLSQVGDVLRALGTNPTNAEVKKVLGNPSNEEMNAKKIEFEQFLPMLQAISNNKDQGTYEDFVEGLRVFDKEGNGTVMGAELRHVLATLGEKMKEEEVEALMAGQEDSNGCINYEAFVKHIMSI

Compound	Toxicity in live zebrafish embryo tests [1]	Fold weaker IC50 than blebbistatin's (cell proliferation) ([2]; day 3)	IC50 ([2]; read-out: IC50 of the inhibition of cell proliferation, cell number at day 3) [µM]	Effect on pLLp migration [3]	Relative migration of HeLa cells [4] [%]	Solubility ([5]; 0.1 vol/vol% DMSO in assay buffer) [µM]	Solubility ([5]; 1 vol/vol% DMSO in assay buffer) [µM]	IC50 [6] [nM]	IC50 [7] [nM]	Maximal inhibition of actin activated ATPase of DdMD [8]	Maximal inhibition of basal ATPase of DdMD [8]	IC50 ([8]; 15 μM actin, read-out: IC50 actin activated ATPase activity of DdMD) [µM]	IC50 ([8]; read-out: IC50 basal ATPase of DdMD) [µM]	Time constant τ of inhibition of blebbing ([9]; 5 μM) [min]	Time constant τ of inhibition of blebbing ([9]; 10 μM) [min]	Time constant τ of inhibition of blebbing ([9]; 25 μM) [min]	Half inhibition time of maximal angular velocity [10] [h]	Time within which amplitude of contraction and blood circulation dropped drastically [11]	IC50 [12] [µM]
Cc1ccc2c(c1)C(=O)[C@]1(O)CCN(c3ccc([N+](=O)[O-])cc3)C1=N2 [para-nitroblebbistatin]	negligible	2–3 times	14.7 ± 4.2	halted pLLp migration	53.2 ± 17.6	3.3 ± 0.1 (≈ 1.11 µg/mL)	3.6 ± 0.2 (≈ 1.21 µg/mL)	100 ± 4	300 ± 40	~ 100%	~ 100%	3.4 ± 0.3	5.3 ± 1.6	21.9 ± 4.6	11.7 ± 0.5	5.9 ± 0.2	1.3	within the first hour	
Cc1cc2c(cc1[N+](=O)[O-])N=C1N(c3ccccc3)CCC1(O)C2=O (stereo not shown) [nitroblebbistatin]																			27.5
